Laboratory results: ChEMBL document CHEMBL1287777 (Bioorg Med Chem Lett, 2010)

Key:
Carbonic anhydrase 2 = Carbonic anhydrase 2 (Homo sapiens, UniProt P00918)
Carbonic anhydrase 9 = Carbonic anhydrase 9 (Homo sapiens, UniProt Q16790); test: Inhibition of human recombinant CA9 catalytic domain by stopped-flow CO2 hydration method
Carbonic anhydrase 1 = Carbonic anhydrase 1 (Homo sapiens, UniProt P00915); test: Inhibition of full length human CA1 cytosolic isoform by stopped-flow CO2 hydration method
Chain of Carbonic anhydrase 1 (P00915 whole entry, canonical isoform): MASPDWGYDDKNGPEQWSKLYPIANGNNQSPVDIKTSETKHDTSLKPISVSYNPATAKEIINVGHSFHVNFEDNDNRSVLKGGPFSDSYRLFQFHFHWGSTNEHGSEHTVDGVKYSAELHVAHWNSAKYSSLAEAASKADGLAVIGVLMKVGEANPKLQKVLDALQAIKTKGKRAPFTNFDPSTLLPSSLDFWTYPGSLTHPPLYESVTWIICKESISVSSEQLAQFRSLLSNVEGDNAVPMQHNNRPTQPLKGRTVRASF

SMILES	Ki (Carbonic anhydrase 2) [µM]	Ki (Carbonic anhydrase 9) [µM]	Ki (Carbonic anhydrase 1) [µM]
CCC(=O)c1cc2ccc(=O)oc2cc1O	> 100	8.02	–
CCCCOc1cc2oc(=O)ccc2cc1C(C)=O	> 100	> 100	> 100
COc1cc2oc(=O)ccc2cc1C(C)=O	> 100	7.8	> 100
CCOc1ccc2ccc(=O)oc2c1C(=O)CC	> 100	0.0467	> 100
CC(=O)c1c(OCc2ccccc2)ccc2ccc(=O)oc12	–	0.0723	> 100
CCC(=O)c1c(OC)ccc2ccc(=O)oc12	> 100	0.0378	> 100
CCOc1cc2oc(=O)ccc2cc1C(C)=O	–	7.4	> 100
CCC(=O)c1c(O)ccc2ccc(=O)oc12	> 100	–	> 100
CC(=O)c1cc2ccc(=O)oc2cc1OCc1ccccc1	–	> 100	> 100
CC(=O)c1cc2ccc(=O)oc2cc1OCCC12CC3CC(CC(C3)C1)C2	> 100	> 100	> 100
CCOc1ccc2ccc(=O)oc2c1C(C)=O	> 100	0.0708	> 100
CC(=O)c1cc2ccc(=O)oc2cc1O	> 100	–	–
CCCOc1ccc2ccc(=O)oc2c1C(C)=O	> 100	0.0567	> 100
COc1ccc2ccc(=O)oc2c1C(C)=O	> 100	0.0783	> 100
CC(=O)c1c(O)ccc2ccc(=O)oc12	> 100	0.073	> 100
CC(=O)c1c(OCCC23CC4CC(CC(C4)C2)C3)ccc2ccc(=O)oc12	> 100	0.0639	> 100
CCCOc1ccc2ccc(=O)oc2c1C(=O)CC	> 100	–	> 100
CCCCOc1ccc2ccc(=O)oc2c1C(C)=O	> 100	–	> 100
CCCOc1cc2oc(=O)ccc2cc1C(C)=O	> 100	7.58	> 100
